Reference: patent US4994488A, “Novel imidate insecticides” (ICI Americas Inc., priority 1989, dated 1991)

What was measured:
Assay type in all cases: in vivo
[1] = test system: Western Spotted Cucumber Beetle Larvae [Diabrotica undecimpunctata undecimpunctata (Mannherheim)]; assay: Western spotted cucumber beetle larvae soil test (Diabrotica); settings: ppm of test compound in the soil
Method: (§1) The compounds in Table 1 above were tested for insecticidal activity using the following testing procedures. LC50 values, based on the results of these tests and calculated according to dosage-mortality curves, are expressed in Table 2.
Western Spotted Cucumber Beetle Larvae[Diabrotica undecimpunctata undecimpunctata (Mannherheim)]
Ten grams of moist potting soil was placed in a plastic cup. The test compound was dissolved in acetone. A 0.05 ml aliquot of the test sample, diluted to the desired concentration, was added to the soil. The cup was capped and the soil was mixed on a vortex mixer for approximately 15 seconds. An indentation was made on the surface of the soil and approximately 50 Diabrotica eggs were added. The eggs were covered with soil and maintained at room temperature (approximately 70° F. or 21° C.). Four days later a section of Romaine lettuce (Latuca sativa) leaf was placed in the treated cups. One week later the cups were examined for live larvae. TEst concentrations ranged from 25 ppm downward. The LC-50 value is expressed below in Table 2 under the heading "Diabrotica" in terms of ppm of the test compound in the soil.

[2] = test system: Cabbage Looper [Trichoplusia ni (Hubner)]; assay: Cabbage looper test (CL); settings: percent of test compound in solution; second-instar larvae; 3-5 days
Method: (§2) The compounds in Table 1 above were tested for insecticidal activity using the following testing procedures.
Cabbage Looper [Trichoplusia ni (Hubner)]
The test compound was diluted in a 50--50 acetone-water solution. Cotyledons of hyzini squash (Calabacita abobrinha), approximately 1×1.5 inches, were immersed in the test solutions for 2-3 seconds and placed on a wire screen to dry. The dried leaves were placed in petri dished containing a moistened piece of filter paper and infested with 5 secondinstar cabbage looper larvae. The dished were placed in a high humidity chamber. Mortality of the larvae was recorded 3-5 days later. Test concentrations ranged from 0.1% downward. The LC-50 value is expressed below in Table 2 under the heading "CL" in terms of percent of the test compound in solution.

[3] = test system: Tobacco Budworm [Heliothis virescens (Fabricius)], eggs; assay: Tobacco budworm egg test (TBW-E); settings: percent of test compound in solution; 2-day old eggs
Method: as §2
Tobacco Budworm [Heliothis virescens (Fabricius)]
(b). Eggs: Paper towel patches of 2-day old eggs of the tobacco budworm were dipped in acetone solutions of the test compound and placed in petri dishes containing a portion of larval rearing medium. […] Test concentrations ranged from 0.1% downward. The LC-50 value is expressed below in Table 2 under the heading "TBW-E" in terms of percent of the test compound in the solution.

[4] = test system: Housefly [Musca domestica]; assay: Housefly insecticidal test (HF); settings: per 25 female houseflies; mortality at 48 hours
Method: as §1
Housefly [Musca domestica]
The test compound was diluted in acetone and aliquots pipetted onto the bottom of aluminum dishes. To ensure even spreading of the chemical on the bottom of the dishes, 1 ml of acetone containing 0.01% peanut oil was also added to each dish. After all solvents had evaporated, the dishes were placed in circular cardboard cages containing 25 female houseflies, 1-2 days old. The cages were covered on the bottom with cellophane and on the top with tulle netting, and each contained a sugar-water saturated cotton plug for maintenance of the flies. Mortality was recorded after 48 hours. Test levels ranged from 100 μg/25 female houseflies downward. The LC-50 value is expressed below in Table 2 under the heading "HF", in terms of μg of the test compound per 25 female flies.

[5] = test system: two-spotted mite [Tetranychus urticae (Koch)], adults; assay: Two-spotted mite acaricidal test, adults (2SM-A); settings: percent of test compound in solution, 5-7 days
Method: as §1
(§3) Acaricidal Evaluation Test
(§4) The two-spotted mite (2SM) [Tetranychus urticae (Koch)]was employed in tests for miticides. The test procedure was as follows:
(§5) Pinto bean plants (Phaseolus sp.), approximately 10 cm tall, were transplanted into sandy loam soil in small cups and thoroughly infested with two-spotted mites of mixed ages and sexes. Twenty-four hours later the infested plants were inverted and dipped for 2-3 seconds in 50--50 acetone-water solutions of the test compound. Treated plants were held in the greenhouse, and 5-7 days later mortality was determined for both adult mites and the nymphs hatching from eggs which were on the plants at the time of treatment. Test concentrations ranged from 0.05% downward. The LC-50 value is expressed below in Table 2 under the headings "2SM-A" (i.e., adults) and "2SM-E" (i.e. eggs) in terms of percent concentration of the test compound in the solution.

[6] = test system: Aster Leafhopper [Macrosteles fascifrens (Stal)]; assay: Contact residue assay on the aster leafhopper (LH); settings: percent of test compound in solution; adults/nymphs; 48 hours
Method: as §1
Contact Residue Assay on the Aster Leafhopper [Macrosteles fascifrens (Stal)]
Oat seedlings (Avena sp) were grown in a commercial potting soil in cups. When the plants were approximately 10 cm tall they were thinned to three plants per cup and dipped for 2-3 seconds in 50--50 acetone-water solutions of the test compounds. When the plants had dried, a clear plastic tube was placed over them and the bottom end pressed into the cup. Ten aster leafhopper adults/nymphs were then placed in each tube and the tops of the tubes covered with white organdy cloth. Mortality counts were made after 48 hours. Test concentrations ranged from 0.05% down to that at which 50% mortality occurred. The LC50 values are expressed below in Table 2 under the heading "LH" in terms of the percent of the test compound in the solution.

[7] = test system: two-spotted mite [Tetranychus urticae (Koch)], eggs; assay: Two-spotted mite acaricidal test, eggs (2SM-E); settings: percent of test compound in solution; nymphs hatching from eggs; 5-7 days
Method: as §1, §3, §4, §5

CC(C)(C)c1ccc(N=C(OCc2cccc(Oc3ccc(F)cc3)c2)C2CC2)cc1 [Compound 14]
LC50 Diabrotica [1]: > 25 ppm (soil) | LC50 CL [2]: 0.017% | LC50 TBW E (eggs) [3]: > 0.1% | LC50 HF [4]: > 100 µg | LC50 2-SM A (adults) [5]: 0.02% | LC50 LH [6]: > 0.05% | LC50 2-SM E (eggs) [7]: 0.02%
